According to PMC10714400, “Antimicrobial Peptide–Peptoid Hybrids with and without Membrane Disruption” (ACS Infectious Diseases, 2023):
Entries after “also recorded” stand apart in the source; their conditions may differ. Where a SMILES comes first, the peptide text is derived from it. [ ]: non-standard residue; d: D form. Nleu = CC(C)CNCC(=O)O; Nlys = NCCCCNCC(=O)O

How the values were obtained:
[1] = Lipid vesicle leakage assay; settings: 10 mM TRIS, 107 mM NaCl, pH 7.4; for Vesicle leakage activity on EYPC vesicles: egg yolk phosphatidyl choline vesicles; for Vesicle leakage activity on EYPG vesicles: fluorescein-loaded anionic EYPG vesicles
Protocol: (c) Vesicle leakage assay for a selection of compounds.
EYPG - EB11 1 EYPC - EB11
Figure S2: Vesicle leakage experiments using 5(6)-carboxyfluorescein induced by peptides. EYPG and EYPC
compound was added after 45 sec. After 240 seconds, 30 µL Triton X-100 1.2% was added for full release of […]

[2] = test system: E. coli W3110; assay: DiSC3(5) inner membrane depolarization assay; type: cell-based, Escherichia coli; settings: E. coli W3110, 2 μM DiSC3(5)
Protocol: Figure 4 Interactions of peptide–peptoid hybrids with bacterial outer and inner membranes of E. coli. (a, b) NPN outer membrane permeability assay. E. coli W3110 bacteria were treated with increasing compound concentrations in the presence of 10 μM NPN. The fluorescence intensity (λex = 340 nm, λem = 415 nm) was measured within 5 min. Data represent mean ± SD, n = 3. (c, d) DiSC3(5) inner membrane depolarization assay. E. coli W3110 bacteria were treated with increasing compound concentrations in the presence of 2 μM DiSC3(5). The fluorescence intensity (λex = 610 nm, λem = 660 nm) was measured within 5 min after treatment, and the data represent mean ± SD, n = 3.
A single colony of P. aeruginosa PAO1 and E. coli W3110 was grown overnight with shaking (150 rpm) in LB broth (5 mL) at 37 °C. A 100 μL portion of the overnight culture was regrown in 10 mL of LB broth with shaking (200 rpm) to the exponential phase (OD600 = 1, corresponding to 10^9 CFU/mL). Bacteria were washed once with HEPES buffer (5 mM HEPES, 5 mM glucose, pH 7.4) and diluted to an OD600 = 0.5. Stock solution of 10 mM of 3,3′-dipropylthiadicarbocyanine iodide (DiSC3(5), purchased from Sigma) was prepared in DMSO. Stock solutions of 2 mg/mL of the compounds were prepared in sterilized milli-Q water and diluted to the beginning concentration of 128 μg/mL in 200 μL of HEPES buffer containing 4 μM of the fluorescent probe DiSC3(5). The diluted samples were added to the first well of 96-well plates (black wells, flat bottom, BRAND GmbH Wertheim, Germany) and diluted serially by 1/2. 100 μL of the bacterial suspension in HEPES buffer (without fluorophore) was added to each well. In this case, the final OD of bacteria was 0.25, the final concentration of peptide in the first column was 64 μg/mL, and DiSC3(5) was 2 μM. The control wells are buffer containing DiSC3(5) and bacterial suspension containing DiSC3(5) in HEPES buffer. The plate was measured with a Tecan instrument Infinite M1000 within 5 min. […] The assay was measured in triplicate and repeated at least two times.[65],[75]

[3] = test system: P. aeruginosa PAO1; assay: Transmission electron microscopy (TEM); type: cell-based, Pseudomonas aeruginosa; settings: P. aeruginosa PAO1, 10 × MIC, […] MH at pH 8.5, 2 h at 37 °C
Protocol: Scale bars are 500 nm and 1 μm. Red arrows: membrane perturbations. Blue arrows: intracellular aggregation. Yellow arrows: empty area within the cell.
(§1) Just before the samples were further prepared for the microscopy, surviving bacteria were quantified by plating 10-fold dilutions of samples in sterilized normal saline (NaCl 0.9%) on LB agar plates. […] The assay was performed in triplicate. Each bacteria sample was centrifuged at 12,000 rpm for 3 min, and the supernatant was discarded. The samples were then further processed and imaged using our previously described protocol.[64]

[4] = test system: P. aeruginosa PAO1; assay: Bacterial count after treatment, before TEM sample preparation; type: cell-based, Pseudomonas aeruginosa; settings: P. aeruginosa PAO1, […] MH pH 8.5, 10x MIC
Protocol: as §1
8. Transmission electron microscopy (TEM)
Table S4: Bacterial counts, 2 hours after treatment, before TEM sample preparation. Data represents triplicates.
Bacteria count after treatment at 10x MIC and 2 h of incubation at 37 °C
Control (non-treated cells) 1 × 10^8 CFU (100)

Compound	Vesicle leakage activity on EYPC vesicles [1]	Vesicle leakage activity on EYPG vesicles [1]	Inner membrane depolarization (DiSC3(5)) [2]	TEM micrographs, changes in treated bacteria [3]	Bacteria count after treatment at 10x MIC and 2 h of incubation at 37 °C (% of control) [4]
CC(C)CN(CC(N)=O)C(=O)CN(CC(C)C)C(=O)CN(CC(C)C)C(=O)CN(CCCCN)C(=O)CN(CC(C)C)C(=O)CN(CC(C)C)C(=O)CN(CCCCN)C(=O)CN(CC(C)C)C(=O)CN(CC(C)C)C(=O)CN(CCCCN)C(=O)CNCCCCN [EB11, kkllkllklll] (H-[Nlys][Nlys][Nleu][Nleu][Nlys][Nleu][Nleu][Nlys][Nleu][Nleu][Nleu]-NH2)	no activity	weak or no vesicle leakage activity	partly depolarized the inner membrane		
CC(C)C[C@H](NC(=O)[C@H](CCCCN)NC(=O)CNCCCCN)C(=O)N[C@@H](CC(C)C)C(=O)N[C@@H](CCCCN)C(=O)N[C@@H](CC(C)C)C(=O)N[C@@H](CC(C)C)C(=O)N[C@@H](CCCCN)C(=O)N[C@@H](CC(C)C)C(=O)N[C@@H](CC(C)C)C(=O)N(CC(N)=O)CC(C)C [EB1] (H-[Nlys]KLLKLLKLL[Nleu]-NH2; N-terminus assumed)	very low levels of activity	very strong activities			
H-KKLLKLLKLLL-NH2 [ln65, reference compound]				strong membrane-disruptive activity	0.01 % of control
CC(C)C[C@H](NC(=O)[C@H](CC(C)C)NC(=O)[C@H](CC(C)C)NC(=O)[C@H](CCCCN)NC(=O)[C@H](CC(C)C)NC(=O)[C@H](CC(C)C)NC(=O)CN(CCCCN)C(=O)[C@H](CC(C)C)NC(=O)[C@H](CC(C)C)NC(=O)CN(CCCCN)C(=O)CNCCCCN)C(N)=O [EB6, kkLLkLLKLLL] (H-[Nlys][Nlys]LL[Nlys]LLKLLL-NH2)	very low levels of activity	very strong activities	strongly depolarized the inner membrane		
CC(C)C[C@H](NC(=O)CN(CC(C)C)C(=O)[C@H](CC(C)C)NC(=O)CN(CCCCN)C(=O)[C@H](CC(C)C)NC(=O)CN(CC(C)C)C(=O)[C@H](CCCCN)NC(=O)CN(CC(C)C)C(=O)[C@H](CC(C)C)NC(=O)CN(CCCCN)C(=O)[C@@H](N)CCCCN)C(N)=O [EB9, KkLlKlLkLlL] (H-K[Nlys]L[Nleu]K[Nleu]L[Nlys]L[Nleu]L-NH2)	no activity	weak or no vesicle leakage activity; also recorded: inactive	partly depolarized the inner membrane	aggregation of intracellular components as the major effect	0.01 % of control
